Measured values published in patent US6362369B1, “Phthalic acid diamide derivatives fluorine-containing aniline compounds as starting material, agricultural and horticultural insecticides, and a method for application of the insecticides” (Nihon Nohyaku Co., Ltd., priority 1997, dated 2002).

Experiments:
Type in all cases: in vivo
[1] = tested on: common cutworm (Spodoptera Litura); experiment: Insecticidal effect on common cutworm (Test Example 2); conditions: common cutworm second-instar larvae; cabbage leaf immersed, 500 ppm; eight days after inoculation; 25° C.
Method in brief: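 Mortality was scored 8 days post-inoculation, using three groups of 10 second-instar larvae kept at 25 °C in closed 9 cm dishes on air-dried treated material. The insecticidal effect was graded from calculated mortality by a set criterion.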

[2] = tested on: diamondback moth (Plutella xylostella); experiment: Insecticidal effect on diamondback moth (Test Example 1); conditions: diamondback moth; mortality judged by criterion of Test Example 1
Method in brief: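 Eggs laid by adult moths on Chinese cabbage seedlings, which were immersed in test solution, air-dried and kept at 25 °C. Hatched insects counted 6 days after immersion and mortality calculated, with effect graded by criterion; triplicate groups of 10 insects.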

[3] = tested on: rice leafroller (Cnaphalocrocis medinalis); experiment: Insecticidal effect on rice leafroller (Test Example 3); conditions: rice leafroller third-instar larvae; rice lamina immersed, 500 ppm; four days after inoculation; 25° C., humidity 70%
Method in brief: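 Groups of 10 third-instar larvae, in triplicate, are placed on air-dried lamina resting on wet filter paper. Incubation runs four days at 25° C with 70% humidity before survivors and dead are tallied.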

Compound	Insecticidal effect, Test Example 2 [1]	Insecticidal effect, Test Example 1 [2]	Insecticidal effect, Test Example 3 [3]
CCCN(C)C(=O)c1c(I)cccc1C(=O)Nc1ccc(C(F)(F)C(F)(F)F)cc1C [compound 1069]	A (100)	A (100)	A (100)
Cc1cc(C(F)(F)C(F)(F)F)ccc1NC(=O)c1cccc(I)c1C(=O)N1CCOCC1 [compound 1070]	A (100)	A (100)	A (100)
Cc1cc(C(F)(F)C(F)(F)F)ccc1NC(=O)c1ccccc1C(=O)N(C(C)C)C(C)C [compound 1071]	C (89-80)	A (100)	A (100)
CCNC(=O)c1c(I)cccc1C(=O)Nc1ccc(C(F)(C(F)(F)F)C(F)(F)F)cc1C [compound 1073]	A (100)	A (100)	A (100)
CCNC(=O)c1cccc(I)c1C(=O)Nc1ccc(C(F)(C(F)(F)F)C(F)(F)F)cc1C [compound 1074]	A (100)	A (100)	A (100)
CCCNC(=O)c1c(I)cccc1C(=O)Nc1ccc(C(F)(C(F)(F)F)C(F)(F)F)cc1C [compound 1075]	A (100)	A (100)	A (100)
CC(C)NC(=O)c1c(Cl)cccc1C(=O)Nc1ccc(S(=O)(=O)C(F)(F)F)cc1 [compound 1078]	A (100)	A (100)	A (100)
CC(C)NC(=O)c1c(I)cccc1C(=O)Nc1ccc(S(=O)(=O)C(F)(F)F)cc1 [compound 1079]	A (100)	A (100)	A (100)
CC(C)(C)NC(=O)c1c(I)cccc1C(=O)Nc1ccc(S(=O)(=O)C(F)(F)F)cc1 [compound 1080]	A (100)	A (100)	A (100)
Cc1cc(C(F)(F)C(F)(F)F)ccc1NC(=O)c1cccc(I)c1C(=O)N(C(C)C)C(C)C [compound 1081]	A (100)	A (100)	A (100)
Cc1cc(OC(F)(F)C(F)(F)c2ccccc2)ccc1NC(=O)c1cccc(Cl)c1C(=O)NC(C)C [compound 1087]	A (100)	A (100)	A (100)
CC(C)NC(=O)c1c(C(=O)Nc2ccc3c(c2)OC(F)(F)O3)cccc1[N+](=O)[O-] [compound 1100]	C (89-80)	A (100)	A (100)
CC(C)NC(=O)c1c(Cl)cccc1C(=O)Nc1ccc2c(c1)OC(F)(F)O2 [compound 1101]	C (89-80)	A (100)	A (100)
CC(C)NC(=O)c1c(I)cccc1C(=O)Nc1ccc2c(c1)OC(F)(F)O2 [compound 1102]	A (100)	A (100)	A (100)
CC(C)(C)NC(=O)c1c(Cl)cccc1C(=O)Nc1ccc2c(c1)OC(F)(F)O2 [compound 1104]	A (100)	A (100)	A (100)
CC(C)(C)NC(=O)c1c(I)cccc1C(=O)Nc1ccc2c(c1)OC(F)(F)O2 [compound 1105]	A (100)	A (100)	A (100)

Compound	Insecticidal effect, Test Example 2 [1]	Insecticidal effect, Test Example 1 [2]	Insecticidal effect, Test Example 3 [3]
CC(C)NC(=O)c1c(Cl)cccc1C(=O)Nc1ccc(SC(F)(F)Br)cc1 [compound 1110]	C (89-80)	A (100)	A (100)
CC(C)NC(=O)c1c(I)cccc1C(=O)Nc1ccc(SC(F)(F)Br)cc1 [compound 1112]	A (100)	A (100)	A (100)
CC(C)NC(=O)c1c(I)cccc1C(=O)Nc1ccc([S+]([O-])C(F)(F)Br)cc1 (stereo not drawn) [compound 1113]	A (100)	A (100)	A (100)
CC(C)(C)NC(=O)c1c(Cl)cccc1C(=O)Nc1ccc(SC(F)(F)Br)cc1 [compound 1114]	A (100)	A (100)	A (100)
CC(C)(C)NC(=O)c1c(I)cccc1C(=O)Nc1ccc(SC(F)(F)Br)cc1 [compound 1115]	A (100)	A (100)	A (100)
Cc1cc(C(F)(F)C(F)(F)F)ccc1NC(=O)c1cccc(I)c1C(=O)N1CCCCCC1 [compound 1117]	A (100)	A (100)	A (100)
CCN(CC)C(=O)c1c(C(=O)Nc2ccc(OC(F)(F)F)cc2C)cccc1[N+](=O)[O-] [compound 1118]	A (100)	A (100)	A (100)
CCN(CC)C(=O)c1c(C(=O)Nc2ccc(C(F)(C(F)(F)F)C(F)(F)F)cc2C)cccc1[N+](=O)[O-] [compound 1119]	A (100)	A (100)	A (100)
Cc1cc(C(F)(F)C(F)(F)F)ccc1N(C)C(=O)c1cccc(I)c1C(=O)N(C)C [compound 1120]	A (100)	A (100)	A (100)
Cc1cc(C(F)(F)C(F)(F)F)ccc1N(C)C(=O)c1cccc(I)c1C(=O)N(C)C(C)C [compound 1121]	A (100)	A (100)	A (100)
CC(C)(C)NC(=O)c1c(I)cccc1C(=O)Nc1ccc(SC(F)(F)F)cc1 [compound 1127]	A (100)	A (100)	A (100)
CCN(CC)C(=O)c1c(I)cccc1C(=O)Nc1ccc(SC(F)(F)F)cc1 [compound 1128]	A (100)	A (100)	A (100)
CCN(CC)C(=O)c1c(I)cccc1C(=O)Nc1ccc2c(c1)OC(F)(F)O2 [compound 1129]	A (100)	A (100)	A (100)
CCN(CC)C(=O)c1c(I)cccc1C(=O)Nc1ccc(C(O)(C(F)(F)F)C(F)(F)F)cc1 [compound 1130]	A (100)	A (100)	A (100)
Cc1cc(C(F)(F)F)ccc1NC(=O)c1cccc(I)c1C(=O)NC(C)(C)C [compound 1141]	A (100)	A (100)	A (100)
